Where two headings read alike, the source gives them in different places.
Assays:
[1] = system: Epdermoid Carcinoma (HEP2); type: cell-based, human; details: among all compounds
Source text: (§1) The in vitro antitumor activity of the compounds under study in this research was investigated cell growth using the MTT assay, [31]. The human tumor cell lines that used to evaluate the activity are Human lung fibroblast (WI38), Colorectal carcinoma Colon cancer (HCT-116) and Epdermoid Carcinoma (HEP2). The MTT assay is a standard colorimetric assay that is used to measure cell growth. It is used to determine cytotoxicity of potential medicinal agents and other toxic materials. Detailed procedures for the MTT assay method is presented in the supporting information (Sect. S2). […]
(§2) Cytotoxicity Assay (Section S2)
The cell lines Human lung fibroblast (WI38), Colorectal carcinoma Colon cancer (HCT-116) and Epdermoid Carcinoma (HEP2) were used to determine the inhibitory effects of compounds on cell growth using the MTT assay. This colorimetric assay is based on the conversion of the yellow tetrazolium bromide (MTT) to a purple formazan derivative by mitochondrial succinate dehydrogenase in viable cells. Cell lines were cultured in RPMI-1640 medium with 10% fetal bovine serum. […]
5mg/ml was added and incubated for 4 h. […] The colorimetric assay is measured and recorded at absorbance of 570 nm using a plate reader (EXL 800, USA). The relative cell viability in percentage was calculated as (A570 of treated samples/A570 of untreated sample) X 100.

[2] = system: Colorectal carcinoma Colon cancer (HCT-116); test: cells; type: cell-based, human; details: for IC50: Homo sapiens; for relative activity for colon carcinoma cells (HCT-116), in words: among all compounds
Source text: (§3) Finally, all the studied phosphonate compounds have moderate to weak cytotoxicity activity on the normal cell WI-38.
as §1, §2
(§4) The cell lines Human lung fibroblast (WI38), Colorectal carcinoma Colon cancer (HCT-116) and Epdermoid Carcinoma (HEP2) were used to determine the inhibitory effects of compounds on cell growth using the MTT assay. This colorimetric assay is based on the conversion of the yellow tetrazolium bromide (MTT) to a purple formazan derivative by mitochondrial succinate dehydrogenase in viable cells. Cell lines were cultured in RPMI-1640 medium with 10% fetal bovine serum. Antibiotics added were 100 units/ml penicillin and 100µg/ml streptomycin at 37 C in a 5% Co2 incubator. The cell lines were seedes in a 96-well plate at a density of 1.0x10^4 cells/well.
(§5) At 37 C for 48 h under 5% CO2. After incubation the cells were treated with different concentration of compounds and incubated for 24 h. After 24 h of drug treatment, 20 µl of MTT solution at […]
(§6) 5mg/ml was added and incubated for 4 h. Dimethyl sulfoxide (DMSO) in volume of 100 µl is added into each well to dissolve the purple formazan formed. The colorimetric assay is measured and recorded at absorbance of 570 nm using a plate reader (EXL 800, USA). The relative cell viability in percentage was calculated as (A570 of treated samples/A570 of untreated sample) X 100.

[3] = system: Human lung fibroblast normal cell line (WI38); test: cells; type: cell-based
Source text: as §3, §1, §2, §4, §5, §6

[4] = HCT-116, read-out: IC50 against colon carcinoma cells (HCT-116)
[5] = WI-38, read-out: IC50 against normal cell line (WI38)
[6] = HCT-116, Figure 4, unit inferred, read-out: IC50 against colon carcinoma cells (HCT-116)
[7] = WI-38, Figure 6, unit inferred, read-out: IC50 against normal cell line (WI38)

SMILES | melting point | relative activity for Epdermoid Carcinoma (HEP2), in words [1] | IC50 [2, 4] | IC50 [3, 5] | IC50 [2, 6] | IC50 [3, 7] | relative activity for colon carcinoma cells (HCT-116), in words [2]
CN(C)c1ccc(C(Nc2cc(-c3ccccc3)nn2-c2ccc([N+](=O)[O-])cc2[N+](=O)[O-])P(=O)(Oc2ccccc2)Oc2ccccc2)cc1 (stereo not drawn) [Compound 4d, Diphenyl{(1-(2,4-dinitrophenyl)-3-phenyl-1H-pyrazol-5-ylamino)(4-N,N-dimethylaminophenyl)} methyl phosphonate] | 212 to 214 °C | highest activity | 26.1 µM | 78.3 µM |  |  | 
CCOP(=O)(OCC)C(Nc1cc(-c2ccc([N+](=O)[O-])cc2)nn1-c1ccccc1)c1ccc(Cl)cc1 (stereo not drawn) [Compound 2e, Diethyl{(3-(4-nitrophenyl)-1-phenyl-1H-pyrazol-5-ylamino)(4-chlorophenyl)}methylphosphonate] | 298 to 300 °C |  |  |  | 57.3 µM | 86.3 µM | 
O=[N+]([O-])c1ccc(-c2cc(NC(c3cccc(O)c3)P(=O)(Oc3ccccc3)Oc3ccccc3)n(-c3ccccc3)n2)cc1 (stereo not drawn) [Compound 4a, Diphenyl{(3-(4-nitrophenyl)-1-phenyl-1H-pyrazol-5-ylamino)(3-hydroxyphenyl)}methylphosphonate] | 266 to 268 °C |  | 73.2 µM | 47.1 µM |  |  | 
O=[N+]([O-])c1ccc(-c2cc(NC(c3ccc([N+](=O)[O-])cc3)P(=O)(Oc3ccccc3)Oc3ccccc3)n(-c3ccccc3)n2)cc1 (stereo not drawn) [Compound 4b, Diphenyl{(3-(4-nitrophenyl)-1-phenyl-1H-pyrazol-5-ylamino)(4-nitrophenyl)}methylphosphonate] | 167 to 168 °C | highest activity | 15.1 µM | 62.8 µM |  |  | strongest activity
O=[N+]([O-])c1cccc(C(Nc2cc(-c3ccccc3)nn2-c2ccc([N+](=O)[O-])cc2[N+](=O)[O-])P(=O)(Oc2ccccc2)Oc2ccccc2)c1 (stereo not drawn) [Compound 4c, Diphenyl{(1-(2,4-dinitrophenyl)-3-phenyl-1H-pyrazol-5-ylamino)(3-nitrophenyl)}methyl phosphonate] |  |  | 51.3 µM | > 100 µM |  |  | 
CCOP(=O)(OCC)C(Nc1cc(-c2ccc([N+](=O)[O-])cc2)nn1-c1ccccc1)c1cccc(O)c1 (stereo not drawn) [Compound 2b, Diethyl{(3-(4-nitrophenyl)-1-phenyl-1H-pyrazol-5-ylamino)(3-hydroxyphenyl)}methylphosphonate] | 252 to 254 °C |  |  |  | 84.5 µM | 55.7 µM | 
CCOP(=O)(OCC)C(Nc1cc(-c2ccc([N+](=O)[O-])cc2)nn1-c1ccccc1)c1ccc([N+](=O)[O-])cc1 (stereo not drawn) [Compound 2d, Diethyl{(3-(4-nitrophenyl)-1-phenyl-1H-pyrazol-5-ylamino)(4-nitrophenyl)}methylphosphonate] | 234 to 235 °C |  |  |  | 19.9 µM | 41.9 µM | strongest activity
CCOP(=O)(OCC)C(Nc1cc(-c2ccc([N+](=O)[O-])cc2)nn1-c1ccccc1)c1cccc(Cl)c1 (stereo not drawn) [Compound 2c, Diethyl{(3-(4-nitrophenyl)-1-phenyl-1H-pyrazol-5-ylamino)(3-chlorophenyl)}methylphosphonate] | 150 to 152 °C |  |  |  | 45.7 µM | 29.7 µM | 
CCOP(=O)(OCC)C(Nc1cc(-c2ccccc2)nn1-c1ccc([N+](=O)[O-])cc1[N+](=O)[O-])c1ccc(N(C)C)cc1 (stereo not drawn) [Compound 2f, Diethyl{(1-(2,4-dinitrophenyl)-3-phenyl-1H-pyrazol-5-ylamino)(4-N,Ndimethylaminophenyl)} methyl phosphonate] | 244 to 246 °C |  |  |  | 37.8 µM | 65.1 µM | 

— article PMC10482913, “A new class of anticancer activity with computational studies for a novel bioactive aminophosphonates based on pyrazole moiety” (Scientific Reports, 2023)
